PubChem BioAssay AID248 (DTP/NCI, 2004)
Several values for one entry are separate records, joined by “and”; a condition that tells them apart may be missing. Identical values can stand only once. Inconclusive results and toxic doses are left out. Cut-off read from the data, not from the text of the source: active = T/C of 150% or more; inactive = T/C below 125%.

Tested on: L1210 leukemia ip in BDF1 mice, survival T/C
Assay: NCI In Vivo Anticancer Drug Screen. Data for tumor model L1210 Leukemia (intraperitoneal) in B6D2F1 (BDF1) mice
Conditions: endpoint: mean survival time, higher = longer survival
Summary of the method: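 Survival endpoint. Drug-treated group vs vehicle group, expressed as T divided by C. Tumor passaged by transplantation.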

[1] = dose: 100.0 mg/kg/injection, schedule: Q04DX002 (ip), vehicle: Klucel (hydroxypropylcellulose) (HPC)
[2] = dose: 200.0 mg/kg/injection, schedule: Q04DX002 (ip), vehicle: Klucel (hydroxypropylcellulose) (HPC)
[3] = dose: 400.0 mg/kg/injection, schedule: Q04DX002 (ip), vehicle: Klucel (hydroxypropylcellulose) (HPC)
[4] = dose: 75.0 mg/kg/injection, schedule: Q01DX001 (ip), vehicle: saline
[5] = dose: 150.0 mg/kg/injection, schedule: Q01DX001 (ip), vehicle: saline
[6] = dose: 100.0 mg/kg/injection, schedule: Q01DX001 (ip), vehicle: saline
[7] = dose: 200.0 mg/kg/injection, schedule: Q01DX001 (ip), vehicle: saline

Measured: T/C

Cc1c(Cl)c(Cl)cc([N+](=O)[O-])c1Cl
inactive: dose: 66.0 mg/kg/injection, schedule: Q01DX009 (sc), vehicle: olive oil, sesame oil, peanut oil 100 % of control | dose: 100.0 mg/kg/injection, schedule: Q01DX009 (sc), vehicle: olive oil, sesame oil, peanut oil 98 % of control | dose: 100.0 mg/kg/injection, schedule: Q04DX003 (sc), vehicle: olive oil, sesame oil, peanut oil 105 % of control | dose: 150.0 mg/kg/injection, schedule: Q01DX009 (sc), vehicle: olive oil, sesame oil, peanut oil 102 % of control | dose: 200.0 mg/kg/injection, schedule: Q01DX009 (sc), vehicle: olive oil, sesame oil, peanut oil 94 % of control | dose: 200.0 mg/kg/injection, schedule: Q04DX003 (sc), vehicle: olive oil, sesame oil, peanut oil 106 % of control | dose: 400.0 mg/kg/injection, schedule: Q01DX009 (sc), vehicle: olive oil, sesame oil, peanut oil 105 % of control | dose: 400.0 mg/kg/injection, schedule: Q04DX003 (sc), vehicle: olive oil, sesame oil, peanut oil 97 % of control

O=C1CCC(=O)N1CCC(=O)N(C(=O)NC1CCCCC1)C1CCCCC1
inactive: dose: 50.0 mg/kg/injection, schedule: Q01DX009 (ip), vehicle: saline 98 % of control | dose: 100.0 mg/kg/injection, schedule: Q01DX009 (ip), vehicle: saline 95 % of control | dose: 100.0 mg/kg/injection, schedule: Q04DX003 (ip), vehicle: saline with Tween-80 100 % of control | dose: 200.0 mg/kg/injection, schedule: Q01DX009 (ip), vehicle: saline 101 % of control | dose: 200.0 mg/kg/injection, schedule: Q04DX003 (ip), vehicle: saline with Tween-80 106 % of control | dose: 400.0 mg/kg/injection, schedule: Q01DX009 (ip), vehicle: saline 98 % of control | dose: 400.0 mg/kg/injection, schedule: Q04DX003 (ip), vehicle: saline with Tween-80 100 % of control

O=[N+]([O-])c1ccc(N2N=NC3CC/C(=C\c4cccs4)C32N2CCOCC2)cc1 (stereo not given)
inactive: [1] 93 % of control | [2] 101 % of control | [3] 90 % of control

Cc1nnc2nc3c(nn12)c1ccccc1n3C
inactive: dose: 6.25 mg/kg/injection, schedule: Q04DX002 (ip), vehicle: saline 100 % of control | dose: 12.5 mg/kg/injection, schedule: Q04DX002 (ip), vehicle: saline 103 % of control | dose: 25.0 mg/kg/injection, schedule: Q04DX002 (ip), vehicle: saline 96 % of control

C[n+]1cc(C#N)cc(C#N)c1
inactive: [4] 90 % of control | [5] 108 % of control

CCOC(=O)CNC(=O)Cn1ccc(=O)[nH]c1=O
inactive: dose: 50.0 mg/kg/injection, schedule: Q01DX001 (ip), vehicle: saline 96 % of control | [6] 98 % of control | [7] 98 % of control

O=C(C[n+]1ccccc1/C=N/Nc1ccccc1)c1ccccc1
inactive: [4] 95 % of control | [5] 95 % of control | dose: 300.0 mg/kg/injection, schedule: Q01DX001 (ip), vehicle: saline 97 % of control

COc1ccc(-c2ccc(OC)cc2OC)c(OC)c1
inactive: dose: 100.0 mg/kg/injection, schedule: Q01DX001 (ip), vehicle: carboxymethylcellulose (CMC) 112 % of control | dose: 200.0 mg/kg/injection, schedule: Q01DX001 (ip), vehicle: carboxymethylcellulose (CMC) 107 % of control | dose: 400.0 mg/kg/injection, schedule: Q01DX001 (ip), vehicle: carboxymethylcellulose (CMC) 112 % of control

O=C(COc1ccc(F)cc1F)Oc1ccc([N+](=O)[O-])cc1
inactive: [1] 101 % of control | [2] 104 % of control | [3] 97 % of control

O=C(c1ccc(O)cc1)c1c[nH]c2c(O)ccc(O)c12
inactive: dose: 25.0 mg/kg/injection, schedule: Q04DX002 (ip), vehicle: saline + alcohol 98 % of control | dose: 50.0 mg/kg/injection, schedule: Q04DX002 (ip), vehicle: saline + alcohol 91 % of control

c1ccc(C2c3cc4ccccc4cc3Oc3ccc4ccccc4c32)cc1 (stereo not given)
inactive: dose: 75.0 mg/kg/injection, schedule: Q04DX003 (ip), vehicle: other 94 % of control | dose: 300.0 mg/kg/injection, schedule: Q04DX003 (ip), vehicle: other 103 % of control

COc1ccc(C(=O)/C=C/c2cccc([N+](=O)[O-])c2)cc1
inactive: dose: 50.0 mg/kg/injection, schedule: Q01DX009 (ip), vehicle: saline with Tween-80 97 % of control | dose: 100.0 mg/kg/injection, schedule: Q01DX009 (ip), vehicle: saline with Tween-80 97 % of control | dose: 200.0 mg/kg/injection, schedule: Q01DX009 (ip), vehicle: saline with Tween-80 97 % of control

CCCCc1c(C)c2c(O)cc(C)cc2oc1=O
inactive: dose: 100.0 mg/kg/injection, schedule: Q01DX001 (ip), vehicle: acetone 92 % of control | dose: 200.0 mg/kg/injection, schedule: Q01DX001 (ip), vehicle: acetone 95 % of control | dose: 400.0 mg/kg/injection, schedule: Q01DX001 (ip), vehicle: acetone 92 % of control

C1=C(c2ccc3ccccc3c2)Nc2ccccc2S1
inactive: dose: 100.0 mg/kg/injection, schedule: Q04DX002 (ip), vehicle: gum acacia 96 % of control | dose: 200.0 mg/kg/injection, schedule: Q04DX002 (ip), vehicle: gum acacia 96 % of control | dose: 400.0 mg/kg/injection, schedule: Q04DX002 (ip), vehicle: gum acacia 88 % of control

O=C(O)C(Nc1ccc(Oc2ccc(NC(C(=O)O)c3ccccc3)cc2)cc1)c1ccccc1 (stereo not given)
inactive: [1] 100 % of control | [2] 100 % of control | [3] 100 % of control

CC1CN1S(=O)(=O)N1CC1C (stereo not given)
inactive: dose: 50.0 mg/kg/injection, schedule: Q01DX001 (ip), vehicle: carboxymethylcellulose (CMC) 111 % of control

IP(c1ccccc1)(c1ccccc1)(c1ccccc1)N1C2CCCCC21 (stereo not given)
inactive: dose: 0.15 mg/kg/injection, schedule: Q01DX009 (ip), vehicle: acetone 107 % of control | dose: 0.31 mg/kg/injection, schedule: Q01DX009 (ip), vehicle: acetone 115 % of control | dose: 0.62 mg/kg/injection, schedule: Q01DX009 (ip), vehicle: acetone 115 % of control | dose: 0.62 mg/kg/injection, schedule: Q01DX009 (ip), vehicle: saline 112 % of control | dose: 0.62 mg/kg/injection, schedule: Q04DX003 (ip), vehicle: saline 113 % of control | dose: 1.2 mg/kg/injection, schedule: Q01DX001 (ip), vehicle: acetone 114 % of control | dose: 1.25 mg/kg/injection, schedule: Q01DX009 (ip), vehicle: saline 104 % of control | dose: 1.25 mg/kg/injection, schedule: Q04DX003 (ip), vehicle: saline 93 % of control | dose: 2.5 mg/kg/injection, schedule: Q01DX001 (ip), vehicle: acetone 119 % of control | dose: 2.5 mg/kg/injection, schedule: Q01DX009 (ip), vehicle: saline 114 % of control

CN(C)C1C(=O)C(C(=O)NCNC(CCS)C(=O)O)=C(O)C2(O)C(=O)C3=C(O)c4c(O)cccc4C(C)(O)C3CC12 (stereo not given)
inactive: dose: 20.0 mg/kg/injection, schedule: Q01DX Z (ip), vehicle: saline 104 % of control | dose: 40.0 mg/kg/injection, schedule: Q01DX Z (ip), vehicle: saline 98 % of control | dose: 80.0 mg/kg/injection, schedule: Q01DX Z (ip), vehicle: saline 96 % of control and 100 % of control | dose: 160.0 mg/kg/injection, schedule: Q01DX Z (ip), vehicle: saline 98 % of control and 101 % of control | dose: 320.0 mg/kg/injection, schedule: Q01DX Z (ip), vehicle: saline 100 % of control

O=C(NC1CCCCC1)Oc1ccc(-c2ccccc2)cc1Cl
inactive: dose: 100.0 mg/kg/injection, schedule: Q01DX009 (ip), vehicle: Klucel (hydroxypropylcellulose) (HPC) 101 % of control | dose: 100.0 mg/kg/injection, schedule: Q04DX003 (ip), vehicle: Klucel (hydroxypropylcellulose) (HPC) 111 % of control | dose: 200.0 mg/kg/injection, schedule: Q01DX009 (ip), vehicle: Klucel (hydroxypropylcellulose) (HPC) 107 % of control | dose: 200.0 mg/kg/injection, schedule: Q04DX003 (ip), vehicle: Klucel (hydroxypropylcellulose) (HPC) 104 % of control | dose: 400.0 mg/kg/injection, schedule: Q01DX009 (ip), vehicle: Klucel (hydroxypropylcellulose) (HPC) 98 % of control | dose: 400.0 mg/kg/injection, schedule: Q04DX003 (ip), vehicle: Klucel (hydroxypropylcellulose) (HPC) 98 % of control

O=C(O)CNc1cc(S(=O)(=O)O)cc2cc(S(=O)(=O)O)cc(O)c12
inactive: [6] 103 % of control | dose: 100.0 mg/kg/injection, schedule: Q04DX003 (ip), vehicle: saline 103 % of control | [7] 107 % of control | dose: 200.0 mg/kg/injection, schedule: Q04DX003 (ip), vehicle: saline 90 % of control | dose: 400.0 mg/kg/injection, schedule: Q01DX001 (ip), vehicle: saline 96 % of control | dose: 400.0 mg/kg/injection, schedule: Q04DX003 (ip), vehicle: saline 92 % of control

CCCCN(C)N=Nc1cn(C2OC(CO)C(O)C2O)c(=O)n(C)c1=O (stereo not given)
inactive: dose: 100.0 mg/kg/injection, schedule: Q01DX005 (ip), vehicle: saline 119 % of control
